Data reported in US7919616B2, “Carbapenem compound” (priority 2005, dated 2011).

Assays:
[1] = Stability test of compound (Ia) in crystalline state (purity by HPLC on storage); format: physicochemical; settings: 20° C. and 40° C., after 6, 17, 21 and 31 days
Description: Stability Test of Compound (Ia) in Crystalline State
About 2 g of the compound (Ia) in a crystalline form which was obtained in the same way as Example 1 was placed in sample bottles, and the sample bottles were stored at room temperature (about 20° C.) and in a room maintained at a temperature of about 40° C. Taking the original purity as 100%, after every several number of days, the purity of the compound (Ia) was measured using high-performance liquid chromatography (HPLC). The HPLC measurement conditions are shown below.
Solvent delivery system: LC-10A (manufactured by Shimadzu Corporation)
UV, VIS detector: SPD-10A (manufactured by Shimadzu Corporation)
Detection wavelength: 215 nm
Column heater: Sugai U-620 (used at 40° C., Sugai Chemical Industry Co., Ltd.)
Column: Inertsil® ODS-2 (4.6 mm diameter×250 mm length, GL Sciences, Inc.)

[2] = disclosed in Patent Document 1; cited from earlier work

Row | SMILES | stability of the crystalline form [1] | stability in the crystalline form [2]
1 | C=CCOC(=O)C1=C(OP(=O)(OCC(Cl)(Cl)Cl)OCC(Cl)(Cl)Cl)[C@H](C)[C@@H]2[C@@H]([C@@H](C)O)C(=O)N12 [compound (Ia), allyl-(1R,5R,6S)-2-[bis(2,2,2-trichloroethyl)phosphoryloxy]-6-[(R)-1-hydroxyethyl]-1-methyl-carbapenem-3-carboxylate] | very stable without a decrease in purity | –
2 | C[C@@H](O)[C@H]1C(=O)N2C(C(=O)OCc3ccc([N+](=O)[O-])cc3)=C(OP(=O)(Oc3ccccc3)Oc3ccccc3)[C@H](C)[C@H]12 [compound (Ib)] | – | excellent stability in the crystalline form
